Ends that are not written are not given here.
How the values were obtained:
dogs = dogs with separation anxiety; cited from earlier work
[1] = molecular target: T1, human two-pore domain potassium channel TREK-1 (Homo sapiens, UniProt O95069); details: Kennard et al; cited from earlier work
T1 sequence (O95069 1-426): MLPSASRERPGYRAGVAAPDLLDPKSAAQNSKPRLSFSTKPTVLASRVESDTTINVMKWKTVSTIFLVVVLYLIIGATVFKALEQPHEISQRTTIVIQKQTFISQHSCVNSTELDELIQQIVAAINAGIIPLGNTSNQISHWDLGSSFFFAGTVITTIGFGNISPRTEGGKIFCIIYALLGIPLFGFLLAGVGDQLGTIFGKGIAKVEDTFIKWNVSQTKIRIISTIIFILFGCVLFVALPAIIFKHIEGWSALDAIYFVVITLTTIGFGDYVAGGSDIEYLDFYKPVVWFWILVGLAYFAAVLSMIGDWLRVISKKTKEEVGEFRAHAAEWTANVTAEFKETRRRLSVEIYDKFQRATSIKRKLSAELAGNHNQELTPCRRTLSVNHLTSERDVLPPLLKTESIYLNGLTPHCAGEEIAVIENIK

C57Bl/6J mice [2] = assay: Forced Swimming Test (FST) in naive mice; assay type: in vivo
Experimental: Naïve male C57Bl/6J mice from 7 to 9 weeks old were used in all experiments (Janvier laboratory). Mice were housed 10 animals per cage under a 12-h light/12-h dark cycle (light on at 8:00 am), in a ventilated room at a temperature of 22±1° C. Animals had free access to water and food (A03; SAFE, Augy, France). All experiments were conducted according to policies on the care and use of laboratory animals of the Society for Neuroscience, and also with respect to national laws on animal use. The local Ethics Committee (CIEPAL) approved the experiments.
(§1) Stock solutions were prepared of 2 mg/mL (10^-3M) in distilled water, and before injection spadin solution was diluted in NaCl 0.9% to obtain the different concentrations used for treatments. Corticosterone (Sigma-Aldrich, France) was dissolved in drinking water at the concentration of 3.5 mg/L in the presence of 4.5 g/L of beta-cyclodextrin. […] Fluoxetine (Sigma-Aldrich, France) was dissolved in drinking water at the dose of 80 mg/L and administered during 21 days. For i.p. administration, fluoxetine (TEVA Santé, France) was dissolved in NaCl 0.9% at a concentration of 0.75 mg/mL. The amount injected was 3 mg/kg. Spadin and analogues were administered by i.v. injection. For acute treatment, drugs were administered in a single 100 μL bolus 30 min prior to the beginning of the behavioral tests. For subchronic treatment drugs were injected during 4 consecutive days and behavioral tests were performed on day 5, without additional injection.
The animals were individually placed in a non-escapable cylinder (height 30 cm, diameter 15 cm) filled with 15 cm-water at 22±1° C. The trial was conducted for 6 min. The total period of immobility was manually measured during the last 4 min of the test. A mouse was considered immobile when it remained floating with only slight movements to keep its head above water.

C57Bl/6J mice [3] = assay: Novelty Suppressed Feeding (NSF) test; assay type: in vivo; details: 10 μg/kg i.v. daily for 4 days, test on day 5
Experimental: as §1
The NSF paradigm is a two day test protocol. Day one, mice were deprived from food. Day two mice were placed in a highly brightly lit area, in a plastic box (45×45×20 cm), with a floor covered with wooden bedding. The test was carried out during a 10 min period; during this time the latency to eat was measured. During the test a single pellet of food was placed in the center of the box, on a white platform.

[4] = tested on: dentate gyrus of the mouse hippocampus; assay: Hippocampal neurogenesis, BrdU-positive cell count; assay type: in vivo; details: 4 day treatment, 10 μg/kg i.v.
Experimental: One day after the injections of 5-bromo-2-deoxyuridine (BrdU), 12 mg per animal divided in four bolus of 100 μl injected every two hours with spadin or Analog 3 (SEQ ID NO:4) and Analog 8 (SEQ ID NO:9), mice were anesthetized with isoflurane and transcardially perfused with 20 mL of 0.9% NaCl followed by 20 mL paraformaldehyde in 4%/NaCl at a concentration of 0.9%. By using a vibratome (Leica) brains were cut in 40 μm sections, throughout the entire hippocampus. Eight slices, from bregma 3.3 to bregma 5.3, were retained to process the BrdU immunohistochemistry as previously described (Heurteaux, C. et al. Deletion of the background potassium channel TREK-1 results in a depression-resistant phenotype. Nat Neurosci 9, 1134, (2006)). For each BrdU labeling, slices were first incubated with a mouse monoclonal anti-BrdU antibody (1/8000, Becton Dinckinson). […]
It was previously shown that a 4-days subchronic treatment with spadin increased the hippocampal neurogenesis (Mazella, J. et al. Spadin, a sortilin-derived peptide, targeting rodent TREK-1 channels: a new concept in the antidepressant drug design. PLoS Biol 8, e1000355, (2010)). […] The neurogenesis in the dentate gyrus of the mouse hippocampus was analyzed by counting the number of progenitor cells that incorporated the DNA synthesis marker 5-bromo-2′deoxyuridine (BrdU).

In the case of `CNCCC(Oc1ccc(C(F)(F)F)cc1)c1ccccc1` (stereo not shown) [fluoxetine], the “dogs less depressive as indicated by better behavior” value (dogs) is listed as 73% and the “effect on human TREK-1 channel” value [1] is listed as “inhibit”.
With “APLPRWSGPIGVSWGLR [spadin, APLPRWSGPIGVSWGLR]” the “immobility time, FST, acute treatment” value (C57Bl/6J mice [2]; 10 μg/kg acute i.v., measured 30 minutes after injection, n=10) was 107.40 ± 5.05 s, the “immobility time, FST, subchronic treatment” value (C57Bl/6J mice [2]; 10 μg/kg i.v. once a day for 4 days, test on day 5) was 123.70 ± 7.16 s and the “time of immobility, FST time course” value (C57Bl/6J mice [2]; 3 h after injection (order of listing)) was 113.2 ± 5.0 s. The “remaining efficiency, % of the initial efficacy, FST” value (C57Bl/6J mice [2]; 3 h after the injection) was 84%, the “time of immobility, FST time course” value (C57Bl/6J mice [2]; 7 h after injection (order of listing)) was 150.8 ± 6.5 s and the “time of immobility, FST time course” value (C57Bl/6J mice [2]; 17 h after injection (order of listing)) was 175.3 ± 7.5 s. For the same compound, the “reduction of immobility times, FST” value (C57Bl/6J mice [2]; after 17 h) was “no reduction in the immobility times”, the “time of immobility, FST time course” value (C57Bl/6J mice [2]; first (initial) time point after injection, time not given) was 102.4 ± 6.2 s and the “remaining efficiency, % of the initial efficacy, FST” value (C57Bl/6J mice [2]; seven hours after the injection) was 30%. For the same compound, the “latency to feed, NSF” value (C57Bl/6J mice [3]) was 151.11 ± 17.70 s and the “number of BrdU-positive cells in the subgranular zone compared to saline” value [4] was “significantly increased”.
